Assays:
Assay type in all cases: physicochemical
[1] = Drug shielding effect on Nylon 12 film, PTX release in PBS; conditions: PBS pH 7.4, 37° C.
Protocol: (§1) Compounds 1, 7, and 14 (200 mg/mL) were dissolved in THF. PTX was added to each solution to make a 25 mg/mL solution. Nylon 12 film sheets were cut 1×1 cm size, blend solution was drop cast on the film sheet, dried in a 50° C. flow oven for 1 day. PTX alone was prepared the same way and used as the control. PBS pH 7.4 was pre-warmed to 37° C. Test articles and control articles were incubated in media (4 mL) at 37° C. for 10, 30, 60 and 120 minutes. At the end of each time point, media was exchanged and at the end of the study, the films were stripped with organic solvent, centrifuged, the supernatant collected, and solvent dried overnight at 60° C. The assessment of the drug shielding effect was analyzed by RP-HPLC with benzonitrile as the internal standard. 10 minute PTX release in PBS (ng/mL): Compound 1: 107.6, Compound 7: 79.7, Compound 14: 15.4, PTX alone: 651. The assessment of oligofluoro adhesion on film surface was done by NMR. A calibration curve for each compound was generated by NMR. Stripped coating was re-suspended in CDCl3 (1 mL) and NMR was performed. Quantity of remaining material was back calculated from NMR integration area. Percent remaining material after 120 minute incubation in PBS: Compound 1: 82.1, Compound 7: 85.5. Similar assessment of drug shielding on films was done with porcine whole blood. […]

[2] = Drug shielding on Nylon 12 film, PTX release in porcine whole blood
Protocol: as §1

[3] = Oligofluoro as solubilizing agent, drug release from coated nylon films in water; conditions: drug at 4 wt %, nylon film, water 24 hours
Protocol: Coating was made on nylon film by drop casting method. Control films with drug coated only was also prepared in a same manner. Coated nylon films were incubated in water for 24 hours to measure drug release.

CC(=O)O[C@H]1C(=O)[C@@]2(C)[C@H]([C@H](OC(=O)c3ccccc3)[C@]3(O)C[C@H](OC(=O)[C@H](O)[C@@H](NC(=O)c4ccccc4)c4ccccc4)C(C)=C1C3(C)C)[C@]1(OC(C)=O)CO[C@@H]1C[C@@H]2O [PTX, paclitaxel]
10 minute PTX release in PBS [1]: 651 ng/mL | 10 minute PTX release in blood [2]: 75.6% | Percentage drug released in water [3]: 11%

Source: patent US10195311B2, “Local delivery of drugs from self assembled coatings” (Interface Biologics, Inc., priority 2009, dated 2019)
